# “Also recorded” adds a separate entry of the source. Like-named read-outs stand apart in the source and are kept apart here.
# Tests used:
# [1] = tested on: Acinetobacter baumannii ATCC 19606; experiment: Minimum inhibitory concentration (microdilution); type: cell-based; conditions: Acinetobacter baumannii, ATCC19606; A. baumannii ATCC 19606; LB media; median of at least 3 determinations; read-out: MIC
# Protocol: (§1) Minimum inhibitory concentration (MIC) values were determined for those compounds showing the most antibacterial activity in the bacterial viability assays (see Supplemental Materials) against each of the strains of bacteria using a microdilution method in 96 well plates with LB media according to guidelines published by the British Society for Antimicrobial Chemotherapy. Minimum bactericidal concentrations (MBC) were determined by plating 10 µL and 100 µL from each well showing no signs of growth after overnight incubation of the MIC plates and determining the minimum concentration showing a 3-log reduction of viable bacteria. MIC and MBC were also determined in cation-adjusted Mueller-Hinton broth (Hardy Diagnostics, Santa Maria, CA) for some compounds and strains.
# [2] = tested on: Acinetobacter baumannii ATCC BAA1605; experiment: Minimum inhibitory concentration (microdilution); type: cell-based; conditions: ATCCBAA1605, A. baumannii ATCC BAA1605, LB media, median of at least 3 determinations
# Protocol: as §1
# [3] = tested on: Enterococcus faecalis ATCC V583; experiment: Minimum inhibitory concentration (microdilution); type: cell-based; conditions: Enterococcus faecalis, ATCCV583; E. faecalis V583; LB media; median of at least 3 determinations; read-out: MIC
# Protocol: as §1
# [4] = tested on: Enterococcus faecalis MSU#10; experiment: Minimum inhibitory concentration (microdilution); type: cell-based; conditions: Enterococcus faecalis; E. faecalis MSU#10; LB media; median of at least 3 determinations; read-out: MIC
# Protocol: as §1
# [5] = tested on: Escherichia coli (strain K91); experiment: Minimum inhibitory concentration (microdilution); type: cell-based; conditions: E. coli K91
# Protocol: as §1
# [6] = tested on: Pseudomonas aeruginosa (strain PA01); experiment: Minimum inhibitory concentration (microdilution); type: cell-based; conditions: Pseudomonas aeruginosa; P. aeruginosa PA01; LB media; median of at least 3 determinations; read-out: MIC
# Protocol: as §1
# [7] = tested on: Staphylococcus aureus RN4220; experiment: Minimum inhibitory concentration (microdilution); type: cell-based; conditions: S. aureus RN4220
# Protocol: as §1
# MRSA strain LAC, USA300 [8] = experiment: Minimum inhibitory concentration (microdilution); type: cell-based, Staphylococcus aureus
# Protocol: as §1
# [9] = tested on: Escherichia coli (strain K91); experiment: Minimum bactericidal concentration; type: cell-based; conditions: E. coli K91; MHB; median; 3-log reduction of viable bacteria
# Protocol: as §1
# [10] = tested on: Staphylococcus aureus RN4220; experiment: Minimum bactericidal concentration; type: cell-based; conditions: S. aureus RN4220; MHB; median; 3-log reduction of viable bacteria
# Protocol: as §1
# MRSA strain LAC, USA300 [11] = experiment: Minimum bactericidal concentration; type: cell-based, Staphylococcus aureus; conditions: MHB, median, 3-log reduction of viable bacteria
# Protocol: as §1
# MRSA [12] = experiment: Time-to-kill (kill curve) assay; type: cell-based, Staphylococcus aureus
# Protocol: Bacteria were cultured to mid-log phase (OD600 ∼0.4) in LB media with shaking and then diluted to approximately 10^4 to 10^5 CFU/mL. Bacteria were then treated with compound at the MIC, 2×MIC, and 4×MIC (as determined by the MIC assays). Over the course of 24 hours, bacteria were incubated at 37°C and aliquots removed at various time intervals, diluted, and plated on LB agar. Plated bacteria were incubated overnight at 37°C and CFU/mL were calculated for each time interval.
# MRSA [13] = experiment: Cytoplasmic leakage & bacteriolysis assay; type: cell-based, Staphylococcus aureus; conditions: for change in A260 of culture supernatant (cytoplasmic leakage): 4×MIC (8 mg/L), within the first 30 minutes, versus untreated controls; for number of viable cells (CFUs) during the leakage assay: over the 3 hour period
# Protocol: Bacteria were cultured to mid-log phase (OD600 ∼0.4) in LB media with shaking. Bacteria were then harvested and resuspended in PBS to a concentration of ∼10^8 CFU/mL. […] Bacteria were monitored over time for cytoplasmic leakage via A260 measurements and for cell viability. For A260 readings, sample aliquots were centrifuged for 5 min at 10,000×g at room temperature to remove cellular debris. Viability was monitored by determining the CFU/mL during the first 3 hours post treatment as described above for the kill curve assays.
# Acanthamoeba castellanii = experiment: Toxicity against eukaryotic pathogen; type: cell-based; conditions: data not shown
# all of the pathogens = experiment: MIC against all of the pathogens (LB); type: cell-based; conditions: complex medium (LB), actively growing bacteria
# Protocol: as §1
# [14] = tested on: HaCaT human keratinocytes; experiment: Cell toxicity assay (MTS); type: cell-based
# [15] = tested on: human breast cancer cell line MDA-MB-231; experiment: Cell toxicity assay (MTS); type: cell-based; conditions: MDA-231
# MRSA [16] = experiment: In vivo MRSA challenge (intraperitoneal infection); parameters: species or system BALB/c mice; conditions: mice, 8 h post infection
# Protocol: Three groups of BALB/c mice (8 mice per group) were infected by intraperitoneal (i.p.) injection with 5×10^7 MRSA in 100 µl sterile PBS [16], [17]. The first treatment group was injected i.p. with 100 µl of 100 µM THAM trisphenylguanide in PBS immediately after infection. The second group was injected i.p. with 100 µl of 100 µM THAM trisphenylguanide one hour post-infection. The control group was injected with 100 µl PBS. At eight hours post-infection, all mice were euthanized. An intraperitoneal lavage using 10 ml PBS was performed to recover bacteria within the peritoneal cavity and plated at multiple dilutions on TSA plates. The heart and kidney were removed for evaluation of systemic infection. Briefly, tissues were weighed, homogenized, and plated at multiple dilutions on TSA plates. TSA plates were incubated overnight at 37°C at 5% CO2 and CFU enumerated the next day.
# [17] = Escherichia coli, LB media, median of at least 3 determinations, read-out: MIC
# [18] = Staphylococcus aureus, LB media, median of at least 3 determinations, read-out: MIC
# [19] = Staphylococcus aureus, MRSA USA300, LB media, median of at least 3 determinations, read-out: MIC
# [20] = 100 µM i.p. one hour after MRSA infection
Compound,MIC [1] [µg/mL],MIC [2] [µg/mL],MIC [3] [µg/mL],MIC [4] [µg/mL],"MIC ([5]; MHB, median) [µg/mL]","MIC [5, 17] [µg/mL]",MIC [6] [µg/mL],"MIC ([7]; MHB, median) [µg/mL]","MIC [7, 18] [µg/mL]","MIC (MRSA strain LAC, USA300 [8]; MRSA USA300, MHB, median) [µg/mL]","MIC (MRSA strain LAC, USA300 [8]; [19]) [µg/mL]",MBC [9] [µg/mL],MBC [10] [µg/mL],"MBC (MRSA strain LAC, USA300 [11]) [µg/mL]",also measured
"[H]/N=C(\N/C(=N/[H])NCCCCCCNC(=N)NC(=N)Nc1ccc(Cl)cc1)Nc1ccc(Cl)cc1 [Chlorhexidine, chlorhexidine, reference compound]",16,16,6,4,0.44,1,8,0.89,1,0.67,1,0.44,0.89,0.89,time by which bactericidal activity was seen (MRSA [12]; 1× to 4×MIC): ≤ 24 h; change in A260 of culture supernatant (cytoplasmic leakage) (MRSA [13]): immediate increase in A260; change in A260 of culture supernatant (cytoplasmic leakage) (MRSA [13]; listed as chlorhexidine): significant increase in A260; number of viable cells (CFUs) during the leakage assay (MRSA [13]): no significant reductions in CFUs; number of viable cells (CFUs) during the leakage assay (MRSA [13]; listed as chlorhexidine): no significant reduction in CFUs; IC50 (Acanthamoeba castellanii): ~10 µM; MIC (all of the pathogens): ≤ 16 µg/mL
"N=C(NCCCCCCNc1nc(NCCCCCCNC(=N)Nc2ccccc2)nc(NCCCCCCNC(=N)Nc2ccccc2)n1)Nc1ccccc1 [THAM-3ΦG, Trishexylaminomelamine trisphenylguanide]",> 256,> 256,256,32,8,8,48,1,2,1,2,16,2,1,"MIC (MRSA strain LAC, USA300 [8]; Staphylococcus aureus, against MRSA, as stated in the abstract, read-out: MIC): ~1 µg/mL; Relative to chlorhexidine (factor by which cytotoxicity was reduced) [14]: 7.1; Relative to chlorhexidine (factor by which cytotoxicity was reduced) [15]: 3.0; reduction in CFU/mL (MRSA [12]; 4×MIC, within 4 hours post treatment): 3 log; time after which no viable cells remained (MRSA [12]; at the MIC): 24 h; change in A260 of culture supernatant (cytoplasmic leakage) (MRSA [13]; listed as THAM-3ФG): significant increase in A260; also recorded: immediate increase in A260; number of viable cells (CFUs) during the leakage assay (MRSA [13]; listed as THAM-3ФG): no significant reductions in CFUs; reduction in bacterial burden in both organs (kidneys, heart) and IP lavage (MRSA [16]; 100 µM i.p. immediately after MRSA challenge, versus PBS): approximately 3 log; reduction of mean CFUs in IP lavages (MRSA [16]; [20]): 2 fold; reduction of mean CFUs in heart (MRSA [16]; [20]): 3 fold; reduction of mean CFUs in kidneys (MRSA [16]; [20]): 20 fold"
